US20080075730A1, “Methods and compositions for treating biofilms” (priority 2003, published 2008)

What was measured:
[1] = system: Pseudomonas aeruginosa PA14 wild-type; test: microbe, parasite or virus in culture; format: cell-based; conditions: for differences in planktonic cell susceptibility between the different strains: wild type vs gacS^− vs SCV, log2 difference or less; for MIC72 h: wild type, planktonic cells, OD650 after 72 h at 35° C., mean ± SD of four trials
Description: (§1) Antimicrobial susceptibility testing. Antibiotic, metal and biocide susceptibility tests were performed. Antimicrobials were arranged into arrays in microtitre plates that typically consisted of serial two-fold dilutions along the rows of wells (the challenge plates). The first and last wells of every row were used as sterility and growth controls, respectively. […] Biofilms were rinsed with PBS (to remove loosely adherent planktonic cells) and inserted into the challenge plates. After exposure, biofilms were rinsed once in PBS and inserted into microtitre plates containing […] of recovery medium in each well (LB broth, 5 mM GSH, 5 mM L-cys, 1% v/v tween-20). These biofilms were disrupted into the recovery medium using a sonicator, and the recovered cells were serially diluted and plated for viable cell counting. Spot plates from these experiments were incubated for a minimum of 36 h at 35° C. before enumeration. Minimum inhibitory concentration (MIC) values were determined by reading the optical density at 650 nm (OD650) of challenge plates after 72 h at 35° C. using a THERMOmax microplate reader with SOFTMAX PRO data analysis software (Molecular Devices, Sunnyvale, Calif.).
(§2) For susceptibility testing, growth-curve data were used to calibrate incubation times to produce biofilms of similar cell density. […] In this model system, planktonic cells shed from the surface of biofilms served as the inoculum for MIC determinations.

[2] = system: Pseudomonas aeruginosa PA14 SCV; test: MIC determination, planktonic cells shed from biofilms (MBEC P&G device); format: cell-based; conditions: SCV; planktonic cells; OD650 after 72 h at 35° C.; mean ± SD of four trials
Description: as §1, §2

[3] = system: Pseudomonas aeruginosa PA14 gacS^−; test: as above; format: cell-based; conditions: gacS^−; planktonic cells; OD650 after 72 h at 35° C.; mean ± SD of four trials
Description: as §1, §2

[4] = system: Pseudomonas aeruginosa PA14 wild-type biofilms; format: cell-based; conditions: for MBEC99.9: wild type biofilms, 2 h exposure, 3 log10 reduction in viable cells
Source text: (§3) Biofilm formation. Biofilms were aerobically cultivated using the MBEC high-throughput (HTP) or Physiology and Genetics (P&G) device (Innovotech, Edmonton, Canada) as described in the manufacturer's instructions and by Ceri et al. (1999). To summarize, the parts of this batch culture apparatus were used in two ways. The top half of the plastic MBEC™-HTP device is a lid with 96 polystyrene pegs that also fits over a standard 96-well microtitre plate. For Biofilm growth, the bottom half was either (1) a corrugated trough that guided 22 mL of inoculum across the pegs when the device was placed on a rocker at 3.5 rocks per min (HTP format), or (2) a microtitre plate with […] of inoculum in each well that was placed on a gyrorotary shaker at 150 r.p.m. (P&G format). For either assay format, the inoculum was prepared to c. 10^7CFU/mL1 of the desired strain and the inoculated device was incubated at 35° C. and 95% relative humidity for the required time. Unless otherwise noted, all experiments utilized the MBEC P&G assay. Pegs from the devices were collected at specific time points for scanning electron microscopy and scanning confocal laser microscopy. Biofilm cell densities were evaluated by breaking pegs from the lid of the MBEC device with sterile pliers, rinsing the peg in PBS, and subsequent viable-cell counting as described above. PBS containing the […] surfactant Tween-20 (1% v/v) was used to assist in recovery of bacteria from the peg surfaces. Pegs were sonicated for 30 min in an Aquasonic model 250HT ultrasonic cleaner (VWR International, Mississauga, Canada). Samples of broth culture were collected at the same time points and viable cell counts were determined in a similar manner.
as §1, §2

[5] = system: Pseudomonas aeruginosa PA14 SCV biofilms; test: Biofilm susceptibility testing (viable cell counts, log-killing, MBEC99.9); format: cell-based; conditions: for MBEC99.9: 2 h exposure, 3 log10 reduction in viable cells; for tolerance of SCV strain biofilms relative to the wild-type strain: ratio of MBEC99.9 values, SCV vs wild type
Source text: as §3, §1, §2

[6] = system: Pseudomonas aeruginosa PA14 gacS^− biofilms; test: as above; format: cell-based; conditions: for Log-survival / No. of survivors / SCV frequency: LB broth; for Log-survival / No. of survivors / SCV frequency / MBEC99.9: 2 h exposure; for MBEC99.9: gacS^− biofilms, 3 log10 reduction in viable cells
Source text: as §3, §1, §2

[7] = system: Pseudomonas aeruginosa PA14 gacS^− biofilms; test: Frequency of SCV cells arising from 24-h biofilms exposed for 18 h; format: cell-based; conditions: for frequency of SCVs (phenotypic variants) among surviving cells, in words: 18 h exposure of 24-h biofilms; for Log-survival / SCV frequency: LB broth, antibiotic 1.25 μg mL^−1, overnight (18 h)
Description: In an alternative set of experiments, the frequency of SCV cells arising from 24-h biofilms of P. aeruginosa PA14 gacS was evaluated. Antibiotics were diluted from stock solutions into LB broth to obtain final concentrations of […]. These were arranged in triplicate in a micro-titre plate. Biofilms were incubated in these low concentrations of antibacterials for 18 h at 35° C. and 95% relative humidity. Goat and human serum were also assayed in this array, and were kind gifts from The Life and Environmental Sciences Animal Care Facility at the University of Calgary, Department of Biological Sciences. After exposure, biofilms were treated in a manner identical to that described above.
Frequency of phenotypic variation. During the course of susceptibility assays, the proportion of SCV cells recovered from biofilms after exposure to Ag^+ or H2O2 was increased relative to the corresponding growth controls. It was queried whether this may be true for other antimicrobial agents or growth conditions. An array of clinically used antibiotics, saline, and goat and human sera were examined for an ability to select for these SCVs from 24-h biofilms of P. aeruginosa PA14 gacS. Biofilms were exposed to these agents for 18 h and each assay was performed in triplicate. Viable cell counts were determined for each exposure condition, and log-survival was determined. The proportion of SCV cells in bacterial populations recovered from these exposure conditions was calculated as the mean of the proportions from each individual trial.

[8] = system: Pseudomonas aeruginosa PA14 gacS^− biofilms; test: as above; format: cell-based; conditions: for Log-survival / No. of survivors / SCV frequency: LB broth, overnight (18 h)
[9] = system: P. aeruginosa PA14 gacA biofilms; test: Antibiotic susceptibility profiling of biofilms with the MBEC device; format: cell-based, Pseudomonas aeruginosa; conditions: in words
Description: Growth Conditions, Sample Analysis and Bio-Assays of Pseudomonas aeruginosa. Biofilm and planktonic growth studies were performed using the Calgary Biofilm Device (CBD) (MBEC™ Biofilm Technologies Limited). Pseudomonas aeruginosa PA14 wild type, gacA and toxA strains were grown for 24 hours in Tryptic Soy Broth (BDH). Biofilm and planktonic populations were sampled at points.
Sampling of biofilm populations was achieved by dislodging a peg from the 96 peg lid, whereas planktonic populations were sampled by removing an aliquot from the growth vessel. Biofilms were disrupted to release individual component cells by sonication. Cell counts of both populations were determined by serial dilution in 0.9% saline and spot plating on Tryptic Soy Agar plates (BDH). Antibiotic susceptibility profiling of P. aeruginosa PA14 wild type, toxA and gacA strains was performed using the MBEC™ device as per manufacturer's instructions (MBEC™ Biofilm Technologies Limited).

[Ag+] [Ag^+]
differences in planktonic cell susceptibility between the different strains [1]: no significant differences
MIC72 h [1]: 40 ± 20 µM
MIC72 h [2]: 40 ± 0 µM
MIC72 h [3]: 40 ± 10 µM
concentration at which the vast majority of cell viability was lost ([4]; PA14 wt biofilms, 2 h exposure (FIG. 15)): 0.04 mM
MBEC99.9 [4]: 0.08 ± 0.05 mM
concentration to which biofilms were resistant ([5]; SCV biofilms, 2 h exposure (FIG. 15)): 2.4 mM
MBEC99.9 ([5]; SCV biofilms): 4.8 ± 0 mM
tolerance of SCV strain biofilms relative to the wild-type strain [5]: ~60 times
Log-survival ([6]; 4 μg mL^−1): −2.6 ± 0.1 log10 CFU peg^−1
No. of survivors ([6]; 4 μg mL^−1): 2.4 ± 0.1 log10 CFU peg^−1
SCV frequency ([6]; 4 μg mL^−1): 7%
concentration at which the vast majority of cell viability was lost ([6]; PA14 gacS biofilms, 2 h exposure (FIG. 15)): 0.02 mM
MBEC99.9 [6]: 0.06 ± 0.02 mM
proportion of SCV cells recovered from biofilms after exposure, relative to growth controls ([6]; susceptibility assays, in words): increased

NCC[C@H](O)C(=O)N[C@@H]1C[C@H](N)[C@@H](O[C@H]2O[C@H](CN)[C@@H](O)[C@H](O)[C@H]2O)[C@H](O)[C@H]1O[C@H]1O[C@H](CO)[C@@H](O)[C@H](N)[C@H]1O [Amikacin]
frequency of SCVs (phenotypic variants) among surviving cells, in words [7]: approximately one in five
Log-survival ([8]; antibiotic 5 μg mL^−1): −2.8 ± 0.6 log10 CFU peg^−1
No. of survivors ([8]; antibiotic 5 μg mL^−1): 3.6 ± 0.6 log10 CFU peg^−1
SCV frequency ([8]; antibiotic 5 μg mL^−1): 23%

C[C@H]1[C@H](NC(=O)/C(=N\OC(C)(C)C(=O)O)c2csc(N)n2)C(=O)N1S(=O)(=O)O [Azetronam]
Log-survival [7]: −2.6 ± 0.5 log10 CFU peg^−1
SCV frequency [7]: 24%
No. of survivors ([8]; antibiotic 1.25 μg mL^−1): 4.5 ± 0.5 log10 CFU peg^−1

CO/N=C(\C(=O)N[C@@H]1C(=O)N2C(C(=O)O)=C(CSc3nc(=O)c(O)nn3C)CS[C@H]12)c1csc(N)n1 [Ceftrioxone]
frequency of SCVs (phenotypic variants) among surviving cells, in words [7]: approximately one in three
Log-survival [7]: +0.4 ± 0.5 log10 CFU peg^−1
SCV frequency [7]: 29%
No. of survivors ([8]; antibiotic 1.25 μg mL^−1): 6.8 ± 0.5 log10 CFU peg^−1

[Cu+2] [Cu^2+]
differences in planktonic cell susceptibility between the different strains [1]: no significant differences
MIC72 h [1]: 8000 ± 0 µM
MIC72 h [2]: 4000 ± 0 µM
MIC72 h [3]: 8000 ± 0 µM
MBEC99.9 [4]: 8 ± 0 mM
MBEC99.9 ([5]; SCV biofilms): 64 ± 0 mM
tolerance of SCV strain biofilms relative to the wild-type strain [5]: eight
Log-survival ([6]; 16 μg mL^−1): −0.9 ± 0.1 log10 CFU peg^−1
No. of survivors ([6]; 16 μg mL^−1): 4.2 ± 0.1 log10 CFU peg^−1
SCV frequency ([6]; 16 μg mL^−1): 0%
MBEC99.9 [6]: 7 ± 2 mM

CC[C@H]1OC(=O)[C@H](C)[C@@H](O[C@H]2C[C@@](C)(OC)[C@@H](O)[C@H](C)O2)[C@H](C)[C@@H](O[C@@H]2O[C@H](C)C[C@H](N(C)C)[C@H]2O)[C@](C)(O)C[C@@H](C)C(=O)[C@H](C)[C@@H](O)[C@]1(C)O [Erythromicin]
selection for SCVs / increase of the frequency of SCV cells compared with growth controls ([7]; in words): in no instances
biofilm resistance relative to PA14 wild type or toxA control strain [9]: moderately decreased resistance
Log-survival ([8]; antibiotic 5 μg mL^−1): −0.1 ± 0.3 log10 CFU peg^−1
No. of survivors ([8]; antibiotic 5 μg mL^−1): 6.4 ± 0.3 log10 CFU peg^−1
SCV frequency ([8]; antibiotic 5 μg mL^−1): 0%

C[C@@H](O)[C@H]1C(=O)N2C(C(=O)O)=C(SCCN=CN)C[C@H]12 [Imipenem]
Log-survival [7]: −3.8 ± 1.0 log10 CFU peg^−1
SCV frequency [7]: 0%
No. of survivors ([8]; antibiotic 1.25 μg mL^−1): 2.7 ± 1.0 log10 CFU peg^−1

Cc1onc(-c2ccccc2)c1C(=O)N[C@@H]1C(=O)N2[C@@H]1SC(C)(C)[C@@H]2C(=O)O [Oxacilin]
frequency of SCVs (phenotypic variants) among surviving cells, in words [7]: approximately one in three
Log-survival [7]: −0.9 ± 0.6 log10 CFU peg^−1
SCV frequency [7]: 32%
No. of survivors ([8]; antibiotic 1.25 μg mL^−1): 5.6 ± 0.6 log10 CFU peg^−1

CO[C@H]1/C=C/O[C@@]2(C)Oc3c(C)c(O)c4c(O)c(c(/C=N/N5CCN(C)CC5)c(O)c4c3C2=O)NC(=O)/C(C)=C\C=C\[C@H](C)[C@H](O)[C@@H](C)[C@@H](O)[C@@H](C)[C@H](OC(C)=O)[C@@H]1C [Rifampicin]
cells killed from the biofilm population ([8]; 5 μg/mL): 0.7 log10 cells
Log-survival ([8]; antibiotic 5 μg mL^−1): −0.7 ± 0.3 log10 CFU peg^−1
No. of survivors ([8]; antibiotic 5 μg mL^−1): 5.7 ± 0.3 log10 CFU peg^−1
SCV frequency ([8]; antibiotic 5 μg mL^−1): 58%

NC[C@H]1O[C@H](O[C@H]2[C@H](O)[C@@H](O[C@H]3O[C@H](CO)[C@@H](O)[C@H](N)[C@H]3O)[C@H](N)C[C@@H]2N)[C@H](N)C[C@@H]1O [Tobramicin]
frequency of SCVs (phenotypic variants) among surviving cells, in words [7]: approximately one in five
Log-survival [7]: −1.0 ± 0.5 log10 CFU peg^−1
SCV frequency [7]: 14%
No. of survivors ([8]; antibiotic 1.25 μg mL^−1): 5.4 ± 0.5 log10 CFU peg^−1

CC[C@H]1OC(=O)[C@H](C)[C@@H](O[C@H]2C[C@@](C)(OC)[C@@H](O)[C@H](C)O2)[C@H](C)[C@@H](O[C@@H]2O[C@H](C)C[C@H](N(C)C)[C@H]2O)[C@](C)(O)C[C@@H](C)CN(C)[C@H](C)[C@@H](O)[C@]1(C)O [azythromycin]
biofilm resistance relative to PA14 wild type or toxA control strain [9]: moderately decreased resistance

O=C(N[C@H](CO)[C@H](O)c1ccc([N+](=O)[O-])cc1)C(Cl)Cl [chloramphenicol]
biofilm resistance relative to PA14 wild type or toxA control strain [9]: moderately decreased resistance

CCN1CCN(C(=O)N[C@@H](C(=O)N[C@@H]2C(=O)N3[C@@H]2SC(C)(C)[C@@H]3C(=O)O)c2ccccc2)C(=O)C1=O [piperacillin]
frequency of SCVs (phenotypic variants) among surviving cells, in words [7]: approximately one in three
biofilm resistance relative to PA14 wild type or toxA control strain [9]: moderately decreased resistance

polymixin B
biofilm resistance relative to PA14 wild type or toxA control strain [9]: moderately decreased resistance
